Measurements taken from patent US9512066B2, “Enhancers of protein degradation” (MAX-DELBRUCK-CENTRUM FUR MOLEKULARE MEDIZIN, priority 2009, dated 2016).
Values after ≈ are worked out from the molar mass of the structure shown.

Tests used:
[1] = test system: tubulin; assay: Tubulin polymerization assay (Cytoskeleton, Inc.); format: biochemical; details: various concentrations
Experimental: The tubulin polymerization assay (Cytoskeleton, Inc., Denver, Colo., USA, #BK011) was performed in accordance to the instruction manual.

[2] = test system: HTT-Q53 protein; assay: GST-Htt-Q53 filter assay with conformational CAG antibody; format: biochemical; details: samples at 0, 4, 5 and 6 h, 30° C.
Experimental: GST-Htt-Q53-protein stock solution was ultra-centrifugated (40 min, 55.000 rpm [TLA-55 rotor], 4° C.); the supernatant was diluted with H2O to a final concentration of 2 μM. DMSO as a control, or drugs at various concentrations were added to the supernatant of GST-Htt-Q53 protein which was preincubated with PreScission Protease (GE Healthcare, #27-0843-01) in Tris-buffer (A:B=1:1; A:50 mM Tris, 150 mM NaCl, pH=6.8; B:1 mM EDTA, pH=8.0+10 mM DTT) and incubated at 30° C. (300 rpm). Samples were taken at 0, 4, 5 and 6 h. The samples were diluted with SDS-buffer (4% SDS, 100 mM DTT) and heated at 98° C. for 5 min. Samples were filtered through a cellulose-acetate membrane which was equilibrated with SDS solution (0.1%). The membrane was washed twice (SDS, 0.1%), blocked with skim milk (3% in PBS) for 30 min and developed with CAG antibody over night at 4° C. and with peroxidase labeled anti rabbit-antibody for 1 h at room temperature. The membrane was washed (2×TBS-0.05% Tween-20, 2×TBS) and luminescence was recorded with Chem Glow.

[3] = Insolubility observed in the HepG2 viability assay; format: physicochemical; details: RPMI culture medium of the HepG2 viability assay, 37 °C, kinetic from dmso stock, RPMI medium (1% L-Glu, 10% FCS), read-out: concentration from/at which insoluble
Experimental: Cell viability was assayed on HepG2 cells. HepG2 cells were cultured in 96-well black culture plates with transparent bottom in RPMI medium (1% L-Glu, 10% FCS). 3 hours after plating, different drug concentrations (0.1 μM-100 μM) or DMSO as control were added. Chlorpromazine hydrochloride (Sigma, # C0982) and cycloheximide (Sigma, # C1988) were used as control substances. Each concentration was run in triplicates. After 48 hours of incubation, Alamar Blue reagent (BIOSOURCE, # DAL1100) was added and plates were incubated for 4 hours at […]. Absorbance was measured in the Tecan-plate reader (Tecan, infinite M200) at 570 nm and 600 nm. Product example 1 was insoluble from a concentration of 50 μM, product example 33 from 30 μM and product example 23 at 100 μM.

[4] = molecular target: BSA (Bos taurus, UniProt P02769); assay: Hydrazone hydrolysis in ammonium acetate solution with addition of BSA (RP-HPLC); format: physicochemical; details: bovine, BSA (5 µM) in ammonium acetate solution, 20 μM hydrazone, 10 mM ammonium acetate, read-out: free soluble hydrazone after addition of BSA (converted)
Experimental: FIG. 4 illustrates the difference in the hydrazone hydrolysis with and without the addition of BSA of product example 1. A freshly prepared 10 mM methanol solution of product example 1 was diluted with an ammonium acetate (10 mM) BSA (5 μM) solution to a final concentration of 20 μM. The free soluble hydrazone was analyzed via RP-HPLC over a sample period of 24 h. The injection volume was 20 μL, the sample was stored at room temperature. The hydrazone peak was exploited for the determination of the hydrazone concentration. After the addition of BSA approximately […] of the available hydrazone was directly associated to the protein. Afterwards, the free hydrazone concentration was almost constant, between 96% and 91%, over the sample period.

Sequence of BSA (P02769 25-607): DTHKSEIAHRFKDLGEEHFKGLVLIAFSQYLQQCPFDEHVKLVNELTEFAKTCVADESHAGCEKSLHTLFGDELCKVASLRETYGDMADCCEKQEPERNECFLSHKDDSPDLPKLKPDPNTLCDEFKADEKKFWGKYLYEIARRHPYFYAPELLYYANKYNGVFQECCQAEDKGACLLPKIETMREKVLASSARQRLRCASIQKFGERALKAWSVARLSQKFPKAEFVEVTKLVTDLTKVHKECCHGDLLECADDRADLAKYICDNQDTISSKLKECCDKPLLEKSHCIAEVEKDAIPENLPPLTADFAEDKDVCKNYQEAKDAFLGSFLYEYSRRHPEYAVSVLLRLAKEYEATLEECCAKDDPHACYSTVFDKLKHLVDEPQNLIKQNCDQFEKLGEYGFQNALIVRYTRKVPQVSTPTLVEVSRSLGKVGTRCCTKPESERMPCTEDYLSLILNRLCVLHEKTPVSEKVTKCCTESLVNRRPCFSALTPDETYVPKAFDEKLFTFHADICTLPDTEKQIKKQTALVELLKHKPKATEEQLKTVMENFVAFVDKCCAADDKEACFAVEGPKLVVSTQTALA

Oc1ccc(C=NNc2c(Cl)cc(C(F)(F)F)cc2Cl)c(O)c1 [Example 1, 4-((2-(2,6-Dichloro-4-(trifluoromethyl)phenyl)hydrazono)methyl)benzene-1,3-diol]
effect on tubulin polymerization [1]: no effect | change in conformation of the HTT-Q53 protein detected by the conformational CAG antibody [2]: time-dependent change in conformation | solubility [3]: ≥ 50 µM | fraction unbound at 20 µM [4]: ~0.83

Oc1ccc(C=NNc2c(F)c(F)c(F)c(F)c2F)c(O)c1 [Example 23, 4-((2-(Perfluorophenyl)hydrazono)methyl)benzene-1,3-diol]
change in conformation of the HTT-Q53 protein detected by the conformational CAG antibody [2]: time-dependent change in conformation | solubility [3]: 100 µM (≈ 31.8 µg/mL)

O=[N+]([O-])c1ccc(NN=Cc2ccc(O)cc2O)cc1 [Example 33, 4-((2-(4-Nitrophenyl)hydrazono)methyl)benzene-1,3-diol]
solubility [3]: ≥ 30 µM
